Measured values reported in ChEMBL document CHEMBL1201862, “PubChem BioAssay data set” (2004).
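Step 1: Grow cells in 96-well plates. Step 2: Expose to compound for 48 hours at 5 concentrations. Step 3: Interpolate endpoints linearly; if unreached, use highest concentration. GI50 = concentration required for 50% inhibition of growth.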 Calls of active or inactive are those of the source. No stated cut-off is given here; in the data, active = GI50 up to about 1.1 µM and inactive = higher.

Legend:
Assay in all cases: DTP human tumour cell line panel, 48 h
786-0 = test system: 786-0
A549 = test system: A549
DU-145 = test system: DU-145
HCC 2998 = test system: HCC 2998
HCT-116 = test system: HCT-116
HOP-62 = test system: HOP-62
HOP-92 = test system: HOP-92
Hs-578T = test system: Hs-578T
KM12 = test system: KM12
MOLT-4 = test system: MOLT-4
Malme-3M = test system: Malme-3M
OVCAR-8 = test system: OVCAR-8
SF-539 = test system: SF-539
SK-OV-3 = test system: SK-OV-3
SNB-19 = test system: SNB-19
SNB-75 = test system: SNB-75
SW-620 = test system: SW-620
TK-10 = test system: TK-10
UACC-257 = test system: UACC-257
A498 = test system: A498

Measured: GI50

CCn1c2c(c3c(C(=O)OC)c(O)ccc31)C(=O)c1ccccc1C2=O
inactive: 786-0 12.2 µM | A549 13.9 µM | DU-145 11.1 µM | HCC 2998 19.4 µM | HCT-116 13.1 µM | HOP-62 15.7 µM | HOP-92 5.52 µM | Hs-578T 10.1 µM | KM12 16.6 µM | MOLT-4 12.1 µM | Malme-3M 15.8 µM | OVCAR-8 11.6 µM | SF-539 13.2 µM | SK-OV-3 5 µM | SNB-19 22.3 µM | SNB-75 4.36 µM | SW-620 15 µM | TK-10 32.4 µM | UACC-257 40.6 µM

O[C@@]12Cc3c([nH]c4ccccc34)[C@@H]3Oc4c(-c5ccccc5)ccc5c4[C@@]31CCN(CC1CC1)[C@@H]2C5
inactive: 786-0 1.65 µM | A498 1.47 µM | A549 1.89 µM | HCC 2998 1.57 µM | HCT-116 1.73 µM | HOP-62 1.51 µM | HOP-92 5.19 µM | Hs-578T 1.85 µM | KM12 1.5 µM | MOLT-4 3.07 µM | Malme-3M 1.9 µM | OVCAR-8 2.22 µM | SK-OV-3 2.95 µM | SNB-19 1.88 µM | SW-620 2.11 µM | UACC-257 1.84 µM

C=C(C(=O)OC)[C@@H]1C[C@@H](OC(C)=O)C2=C[C@H](C[C@@]3(C)O[C@@H]3C3=CC(C)=C(O3)[C@H]1OC(C)=O)OC2=O [BIPINNATIN I]
inactive: 786-0 14.7 µM | A498 16.9 µM | A549 40.7 µM | DU-145 32.9 µM | HCC 2998 20.4 µM | HCT-116 10.4 µM | HOP-62 22.7 µM | KM12 19.8 µM | MOLT-4 2.16 µM | Malme-3M 13.3 µM | OVCAR-8 17.3 µM | SF-539 31.4 µM | SK-OV-3 37.5 µM | SNB-19 47.6 µM | SNB-75 26.1 µM | SW-620 4.71 µM | TK-10 16 µM | UACC-257 18.2 µM

O=C(COC(=O)c1cccc2c(=O)c3ccccc3[nH]c12)Nc1ccc(S(=O)(=O)Nc2ncccn2)cc1
inactive: 786-0 42.2 µM | A498 95.5 µM | A549 > 100 µM | HCC 2998 38.8 µM | HCT-116 39.6 µM | HOP-62 41.6 µM | HOP-92 15.6 µM | KM12 43.9 µM | MOLT-4 28.4 µM | Malme-3M 49.5 µM | OVCAR-8 35.8 µM | SF-539 20.5 µM | SK-OV-3 39.5 µM | SNB-19 38.8 µM | SNB-75 30 µM | SW-620 47.2 µM | TK-10 39.4 µM | UACC-257 66.1 µM

COC(=O)C1C2CC3C(OC(=O)C31)C2I (stereo unspecified)
inactive: 786-0 > 100 µM | A498 > 100 µM | A549 > 100 µM | HCC 2998 > 100 µM | HCT-116 > 100 µM | HOP-62 > 100 µM | HOP-92 > 100 µM | KM12 > 100 µM | MOLT-4 > 100 µM | Malme-3M > 100 µM | OVCAR-8 > 100 µM | SF-539 > 100 µM | SK-OV-3 > 100 µM | SNB-19 > 100 µM | SNB-75 > 100 µM | SW-620 > 100 µM | TK-10 > 10 µM | UACC-257 > 100 µM

Cc1csc2nc3[nH]ncc3c(=O)n12
inactive: 786-0 > 100 µM | A549 > 100 µM | HCC 2998 > 100 µM | HCT-116 > 100 µM | HOP-62 > 100 µM | Hs-578T 28.4 µM | KM12 > 100 µM | MOLT-4 > 100 µM | Malme-3M > 100 µM | OVCAR-8 > 100 µM | SF-539 > 100 µM | SK-OV-3 > 100 µM | SNB-19 > 100 µM | SNB-75 61 µM | SW-620 > 100 µM | UACC-257 > 100 µM

O=C(n1[nH]c(=O)n(-c2ccc([N+](=O)[O-])cc2)c1=O)C(Cl)(Cl)Cl
inactive: 786-0 > 75 µM | A549 > 75 µM | DU-145 > 75 µM | HCC 2998 > 75 µM | HCT-116 > 75 µM | HOP-62 > 75 µM | Hs-578T > 75 µM | KM12 > 75 µM | MOLT-4 > 75 µM | Malme-3M > 75 µM | OVCAR-8 > 75 µM | SK-OV-3 > 75 µM | SNB-19 > 75 µM | SNB-75 > 75 µM | SW-620 > 75 µM | TK-10 > 75 µM | UACC-257 > 75 µM

O=C1CCC(c2ccccc2)C(O)(C(=O)O)C1 (stereo unspecified)
inactive: 786-0 > 100 µM | A498 > 100 µM | A549 > 100 µM | HCC 2998 > 100 µM | HCT-116 > 100 µM | HOP-62 > 100 µM | HOP-92 > 100 µM | KM12 > 100 µM | MOLT-4 > 100 µM | Malme-3M > 100 µM | OVCAR-8 > 100 µM | SF-539 > 100 µM | SK-OV-3 > 100 µM | SNB-19 > 100 µM | SNB-75 > 100 µM | SW-620 > 100 µM | TK-10 > 100 µM | UACC-257 > 100 µM

O=C(Nc1cccc(Cc2cccc(NC(=O)c3ccccc3)c2)c1)c1ccccc1
inactive: 786-0 26.9 µM | A498 17.8 µM | A549 24.8 µM | HCC 2998 > 100 µM | HCT-116 50.6 µM | HOP-62 22 µM | HOP-92 9.77 µM | KM12 > 100 µM | MOLT-4 > 100 µM | Malme-3M 23.3 µM | OVCAR-8 19.5 µM | SF-539 12.6 µM | SK-OV-3 25.8 µM | SNB-19 25.4 µM | SNB-75 10.5 µM | SW-620 > 100 µM | TK-10 > 100 µM | UACC-257 29.8 µM

CCC1(N=[N+]=[N-])C(=O)c2ccccc2N(C)C1=O (stereo unspecified)
inactive: 786-0 > 100 µM | A498 > 100 µM | A549 > 100 µM | HCC 2998 > 100 µM | HCT-116 > 100 µM | HOP-62 > 100 µM | HOP-92 > 100 µM | KM12 > 100 µM | MOLT-4 > 100 µM | Malme-3M > 100 µM | OVCAR-8 > 100 µM | SF-539 > 100 µM | SK-OV-3 > 100 µM | SNB-19 > 100 µM | SNB-75 > 100 µM | SW-620 > 100 µM | TK-10 > 100 µM | UACC-257 > 100 µM

c1cncc(CNCCN2CCNCC2)c1
inactive: 786-0 > 100 µM | A498 > 100 µM | A549 > 100 µM | HCT-116 > 100 µM | HOP-62 > 100 µM | HOP-92 > 100 µM | Hs-578T > 100 µM | KM12 > 100 µM | MOLT-4 > 100 µM | Malme-3M > 100 µM | OVCAR-8 > 100 µM | SF-539 > 100 µM | SK-OV-3 > 100 µM | SNB-19 > 100 µM | SNB-75 > 100 µM | SW-620 > 100 µM | TK-10 > 100 µM | UACC-257 > 100 µM

CC1(C)CN=C(Nc2ccc(Cl)cc2)S1
inactive: 786-0 > 100 µM | A549 > 100 µM | DU-145 > 100 µM | HCC 2998 > 100 µM | HCT-116 69.5 µM | HOP-62 > 100 µM | HOP-92 29.5 µM | Hs-578T > 100 µM | KM12 90.4 µM | MOLT-4 58.5 µM | Malme-3M > 100 µM | OVCAR-8 > 100 µM | SF-539 > 100 µM | SK-OV-3 > 100 µM | SNB-19 > 100 µM | SNB-75 70.8 µM | SW-620 > 100 µM | TK-10 65.8 µM | UACC-257 70 µM

O=c1c2c(c1=O)C1(SCCCS1)c1cc(Cl)ccc1O2
inactive: 786-0 > 100 µM | A498 > 100 µM | A549 > 100 µM | DU-145 > 100 µM | HCC 2998 > 100 µM | HCT-116 > 100 µM | HOP-62 > 100 µM | HOP-92 > 100 µM | KM12 > 100 µM | MOLT-4 > 100 µM | Malme-3M > 100 µM | OVCAR-8 > 100 µM | SF-539 > 100 µM | SK-OV-3 > 100 µM | SNB-19 > 100 µM | SNB-75 > 100 µM | SW-620 > 100 µM | TK-10 > 100 µM | UACC-257 > 100 µM

CNc1ccc([S+]([O-])Nc2ccccc2)cc1 (stereo unspecified)
inactive: 786-0 53.8 µM | A549 45.6 µM | DU-145 > 100 µM | HCC 2998 23.1 µM | HCT-116 40.2 µM | HOP-62 58.3 µM | Hs-578T 37.7 µM | KM12 21.8 µM | MOLT-4 52.6 µM | Malme-3M 53.2 µM | OVCAR-8 56.2 µM | SF-539 > 100 µM | SNB-19 > 100 µM | SW-620 70.8 µM | TK-10 > 100 µM | UACC-257 41.1 µM

O=C(OCN1C(=O)C2C3C=CC(C2C1=O)C1C2C(=O)N(COC(=O)C4CCCN4)C(=O)C2C31)C1CCCN1 (stereo unspecified)
inactive: 786-0 35.6 µM | A498 > 100 µM | A549 62.5 µM | HCC 2998 > 100 µM | HCT-116 28.8 µM | HOP-62 > 100 µM | HOP-92 > 100 µM | KM12 > 94 µM | MOLT-4 32.3 µM | Malme-3M > 100 µM | OVCAR-8 25.5 µM | SF-539 47.8 µM | SK-OV-3 > 100 µM | SNB-19 > 100 µM | SNB-75 > 82.6 µM | SW-620 30.2 µM | TK-10 > 100 µM | UACC-257 > 79.4 µM
